From patent publication US20070270421A1, “Novel pyridine Derivative and Pyrimidine Derivative (1)” (priority 2004, published 2007)

Tested on: Human umbilical vein endothelial cells (HUVECs)
Assay: Inhibitory activity against sandwich tube formation by vascular endothelial cells stimulated with hepatocyte growth factor
Assay type: cell-based
Conditions: HUVEC in collagen gel, 30 ng/ml HGF, fourth day, total tube length, read-out: IC50 (concentration necessary to inhibit the tube formation by 50%)
Description: Human umbilical vein endothelial cells (HUVECs) were isolated according to the reported method (Shin Seikagaku Jikken Koza, “Cell culturing techniques”, p 197-202), and then cultured in a 5% CO2 incubator (37° C.) using EGM-2 medium (purchased from Clonetics) until the cells reached confluency.
To each well of a 24-well plate was added 0.4 ml of an ice-cold mixture of collagen:5×RPMI1640:reconstitution buffer (all purchased from Nitta Gelatin, Inc.) at 7:2:1, followed by incubating in a 5% CO2 incubator (37° C.) for 40 min to allow the solution to gel. Then, each well was supplied with 1 ml of the cell suspension of HUVEC (1-1.2×10^5 cells were used, though the cell number varied slightly depending on the lot of the HUVEC to be used) diluted with a serum free medium for endothelial cell culture (SFM, purchased from GIBCO RBL) supplemented with 10 ng/ml of EGF, followed by culturing in a 5% CO2 incubator (37° C.) overnight. […] The tube formed in the collagen gel of each well was stained with MTT, and then the tube image was loaded in a computer (Macintosh) to determine the total length of the tube by an image analysis software “Angiogenesis quantification software” (purchased from Kurabo). The ratio of the total length of a tube formed in a well supplied with the test substance relative to a tube formed in a well supplied with no test substance was expressed as a percentage. […]

Molecule `O=C(Cc1ccc(F)cc1)NC(=S)Nc1ccc(Oc2ccnc(NC(=O)N3CCCC3)c2)c(F)c1` [Example 13, 4-(2-Fluoro-4-{3-[2-(4-fluorophenyl)acetyl]thioureido}phenoxy)-2-[(pyrrolidin-1-yl)carbonylamino]pyridine] has an IC50 of 130 nM.
